{"source": "patent US20250368629A1", "about": "“FLAVONOID COMPOUNDS AND METHODS AND MATERIALS FOR USING FLAVONOID COMPOUNDS TO TREAT FIBROTIC CONDITIONS” (Mayo Foundation for Medical Education and Research, priority 2022, published 2025)", "key": {"[1]": {"tested_on": "Mdr2-/- mice", "experiment": "Mdr2-/- mouse model of PSC with established liver fibrosis, i.p. treatment", "format": "in vivo", "conditions": "10 mg/kg/daily i.p. for 14 days", "method": "FIG. 6. Biochemical and histological examination of fibrosis in Mdr2^−/− mice treated with vehicle or F-4N. Mdr2^−/− mice (18-20 weeks old) with established liver fibrosis were treated with F-4N (10 mg/kg/daily i.p. n=10) or vehicle (i.p. n=10) for 14 days, then sacrificed the next day. Liver tissue and serum were collected for analysis. Left panel. […] Right panels.\nHydroxyproline content was measured using a hydroxyproline assay kit (Biovision) according to the manufacturer's instructions with slight modification. The liver tissues were weighed, homogenized in sterile water (10 mg of tissue per 100 μL H2O) and hydrolyzed in 12 M HCl in a pressure-tight, Teflon capped vial at 120° C. for 3 hours followed by filtration through a 45 μm Spin-X Centrifuge Tube filter (Corning). Ten μL of the hydrolyzed samples was dried in a Speed-Vac for 2 hours, followed by incubation with 100 μL of Chloramine T reagent for 5 minutes at room temperature and 100 μL of 4-(dimethylamino)benzaldehyde (DMAB) for 90 minutes at 60° C. The absorbance of oxidized hydroxyproline was determined at 560 nm. Hydroxyproline concentrations were calculated from a standard curve generated using known concentrations of trans-4-hydroxyl-L-proline. The total amount of protein isolated from the weighed tissues was determined by using a protein assay kit (Bio-Rad, absorbance at 595 nm). The amount of collagen was expressed in μg/mg total protein.\nThe slides were then stained with a solution containing 0.1% picrosirius red (Direct Red 80) and 0.1% fast green (counterstain) in saturated aqueous solution of picric acid, for 60 minutes at room temperature, followed by one wash in distilled water, de-hydration in 3 changes of 100% EtOH, clear in xylene and mount in resinous medium.\nSerum alanine aminotransferase (ALT), alkaline phosphatase (ALP) and total bile acids were measured using a commercially available veterinary chemistry analyzer (VetScan 2, Abaxis).\nRNA isolation using RNeasy Plus Mini Kit (Qiagen) according to the manufacturer's instructions. Isolated RNA (250 ng) was then used to synthesize cDNA using SuperScript VILO (Invitrogen). Quantitative PCR was performed using FastStart Essential DNA Green Master (Roche) and analyzed using a LightCycler 96 (Roche). Data are expressed as a fold change by ΔΔCt relative to glyceraldehyde-3-phosphate dehydrogenase (GAPDH)."}, "[2]": {"experiment": "Stability in human plasma", "format": "in vitro ADME", "method": "The stability of F-4N in plasma was assessed (FIG. 27). Compounds were incubated with human or mouse plasma. The percent of F-4N recovered was analyzed by LC-MS. Warfarin was used as a control for stable compound, and propantheline was used as a control for an unstable compound. Analysis was performed by Cyprotex (Framingham, MA)."}, "[3]": {"biological_target": "T1, STK17B (Homo sapiens, UniProt O94768)", "T1 construct": "purchased Reaction Biology", "T1 sequence (O94768 1-372)": "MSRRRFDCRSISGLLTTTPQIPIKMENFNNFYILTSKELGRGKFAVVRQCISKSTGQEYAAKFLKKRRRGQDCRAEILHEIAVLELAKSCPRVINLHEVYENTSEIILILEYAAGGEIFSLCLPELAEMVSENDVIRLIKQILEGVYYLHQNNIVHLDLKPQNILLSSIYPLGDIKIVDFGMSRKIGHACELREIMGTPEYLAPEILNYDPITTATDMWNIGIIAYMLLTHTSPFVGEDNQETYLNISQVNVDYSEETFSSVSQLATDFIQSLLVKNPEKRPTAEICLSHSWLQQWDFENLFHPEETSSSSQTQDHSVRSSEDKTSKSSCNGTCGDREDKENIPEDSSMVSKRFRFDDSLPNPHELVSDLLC", "experiment": "Kinase dose response curve on STK17B", "format": "biochemical", "conditions": "FIG. 4A, read-out: half maximal inhibitory concentration (IC50) on STK17B", "method": "FIGS. 4A-4B show mechanism of action of F-4N. […] Dose response curves on STK17A and STK17B show half maximal inhibitory concentration (IC50) values of ˜200 nM. […] FIG. 4A. F-4N was sent to Reaction Biology to be tested against their entire wild-type kinase panel. 1 μM F-4N was tested in an ATP competition assay against 420+ kinases. Z-scores were calculated to identify true hits over noise."}, "[4]": {"experiment": "in vitro", "format": "in vitro ADME", "conditions": "rat", "method": "Plasma protein binding assays were also performed (Table 2). Compounds were incubated with rat plasma for 4 hours. The percent of F-4N recovered was analyzed by LC-MS. Warfarin was used as a control for a compound with high plasma protein binding. Analysis performed by Cyprotex (Framingham, MA)."}, "[5]": {"tested_on": "10-18-month-old C57/B6 mice", "experiment": "Non-resolving model of lung fibrosis (bleomycin, aged mice)", "format": "in vivo, mouse", "method": "FIG. 3. Lung fibrosis was induced in 10-18-month-old C57/B6 mice (average ˜15-months) using intratracheal bleomycin (1.1 units/kg) on day 0 of the study. On day 14 one group was administered F-4N (10 mg/kg daily i.p.) for 14 days prior to harvesting the lung for outcomes and senescence clearance and fibrosis. Lung architecture and fibrosis were observed by trichome histological staining and hydroxyproline content. Hydroxyproline content was measured using a hydroxyproline assay kit (Biovision) according to the manufacturer's instructions with slight modification. The lung tissues were weighed, homogenized in sterile water (10 mg of tissue per 100 μL H2O) and hydrolyzed in 12 M HCl in a pressure-tight, Teflon capped vial at 120° C. for 3 hours followed by filtration through a 45 μm Spin-X Centrifuge Tube filter (Corning). Ten μL of the hydrolyzed samples was dried in a Speed-Vac for 2 hours, followed by incubation with 100 μL of Chloramine T reagent for 5 minutes at room temperature and 100 μL of 4-(Dimethylamino)benzaldehyde (DMAB) for 90 minutes at 60° C. The absorbance of oxidized hydroxyproline was determined at 560 nm. Hydroxyproline concentrations were calculated from a standard curve generated using known concentrations of trans-4-hydroxyl-L-proline. The total amount of protein isolated from the weighed tissues was determined by using a protein assay kit (Bio-Rad, absorbance at 595 nm). The amount of collagen was expressed in μg/mg total protein. qPCR: RNA isolation using RNeasy Plus Mini Kit (Qiagen) according to the manufacturer's instructions. Isolated RNA (250 ng) was then used to synthesize cDNA using SuperScript VILO (Invitrogen). Quantitative PCR was performed using FastStart Essential DNA Green Master (Roche) and analyzed using a LightCycler 96 (Roche). Data are expressed as a fold change by ΔΔCt relative to glyceraldehyde-3-phosphate dehydrogenase (GAPDH)."}, "[6]": {"conditions": "10 mg/kg daily i.p. for 14 days"}, "[7]": {"conditions": "10 mg/kg daily i.p. for 14 days, qPCR"}}, "data": [{"smiles": "O=c1c(O)c(-c2ccc(OCc3ccncc3)cc2)oc2ccccc12", "note": "[F—4N]", "values": [{"measurement": "reduction of liver collagen content (hydroxyproline assay) compared to vehicle control", "setting": "[1]", "result": "~40", "unit": "%"}, {"measurement": "Liver function tests: ALT, ALP and serum bile acid values", "setting": "[1]; compared to vehicle", "result": "significantly reduced"}, {"measurement": "RT-PCR of whole liver RNA: Col1a1, Il6, Ccl2, Cdkn1a, Cdkn2a", "setting": "[1]; compared to vehicle", "result": "significantly reduced"}, {"measurement": "Picrosirius red staining of liver collagen fibers", "setting": "[1]; particularly portal-to-portal areas", "result": "reduction of collagen fibers"}, {"measurement": "stability in plasma (percent recovered, LC-MS)", "setting": "[2]", "result": "stable"}, {"measurement": "IC50", "setting": "[3]", "result": "~200", "unit": "nM"}, {"measurement": "recovery at 4 h, 5 μM", "setting": "[4]", "result": 100, "unit": "%"}, {"measurement": "Plasma bound", "setting": "[4]; 4 h, 5 μM", "result": 99, "unit": "%"}, {"measurement": "plasma protein binding (in words)", "setting": "[4]; plasma", "result": "high"}, {"measurement": "Plasma unbound", "setting": "[4]; plasma, 4 h, 5 μM", "result": 0.94, "unit": "%"}, {"measurement": "fibrosis and lung architecture by trichrome histological staining", "setting": "[5]; [6]", "result": "less fibrosis and improved lung architecture"}, {"measurement": "lung hydroxyproline content", "setting": "[5]; [6]", "result": "reduced"}, {"measurement": "whole lung expression of Collagen I", "setting": "[5]; [7]", "result": "reduced expression"}, {"measurement": "whole lung expression of senescence markers (Cdkn2a, Cdkn1a, Ccl2)", "setting": "[5]; [7]", "result": "reduced expression"}, {"measurement": "survival following bleomycin-induced fibrosis", "setting": "[5]; 10 mg/kg daily i.p. from day 14", "result": "improved survival"}]}]}
